Results on two molecules are retold here after US8822477B2, “Use of osmolytes obtained from extremophilic bacteria for producing medicine for the external treatment of neurodermatitis” (Bitop AG, priority 2003, dated 2014).

This assay concerns neurodermatitis. Put plainly: topical treatment of neurodermatitis compared with placebo treatment. In kind it is in vivo. To be noted: for healing of affected skin changes: in comparison to a placebo treatment; for effectiveness in the treatment of neurodermatitis: topic application.

For the molecule `CC1=NCC[C@@H](C(=O)O)N1` [ectoine], the “healing of affected skin changes” value is on record as “unexpectedly accelerated healing of affected skin changes” and the “effectiveness in the treatment of neurodermatitis” value is listed as “surprisingly high effectiveness”.

`CC1=NC[C@H](O)[C@@H](C(=O)O)N1` [hydroxyectoine]: the “healing of affected skin changes” value is listed as “unexpectedly accelerated healing of affected skin changes” and the “effectiveness in the treatment of neurodermatitis” value is given as “surprisingly high effectiveness”.
